Measured values from US10538555B2, “Macrocyclic inhibitors of the PD-1/PD-L1 and CD80(B7-1)/PD-L1 protein/protein interactions” (BRISTOL-MYERS SQUIBB COMPANY, priority 2014, dated 2020).
Where a SMILES comes first, the peptide text is derived from it. Bridges are numbered along the chain shown (N, C = ends). [ ]: non-standard residue; d: D form. ξ: configuration not given here. Phe(4-F) = N[C@@H](Cc1ccc(F)cc1)C(=O)O; NMeF = CN[C@@H](Cc1ccccc1)C(=O)O; hIle(4ξ) = CCC(C)C[C@H](N)C(=O)O; NMeL = CN[C@@H](CC(C)C)C(=O)O; NMeNle = CCCC[C@H](NC)C(=O)O; NMeV = CN[C@H](C(=O)O)C(C)C; dPip = O=C(O)[C@H]1CCCCN1; Orn = NCCC[C@H](N)C(=O)O

Target: T1, Human PD-L1/PD-1 (Homo sapiens, UniProt Q9NZQ7)
T1 construct: TVMV protease cleavage site (C); made in house; host or cells: HEK293T cells
Test: HTRF Human PD-L1/PD-1 binding assay (PD-1-Ig/PD-L1-His)
Settings: PD-L1-His 10 nM, PD-1-Ig 20 nM; class symbol; read-out: HTRF Human PD-L1/PD-1 Binding Assay IC50 Range
How it was run: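 Soluble HEK293T-expressed proteins: hPD-L1-His 10 nM, hPD-1-Ig 20 nM final. Cpd + PD-L1 15 min, + PD-1 15 min, + Eu anti-Ig 1 nM/APC anti-His 20 nM 30 min. Buffer dPBS, 0.1% BSA, 0.05% Tween-20. TR-FRET 665/620.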

T1 sequence (Q9NZQ7 with tags, fused parts or gaps): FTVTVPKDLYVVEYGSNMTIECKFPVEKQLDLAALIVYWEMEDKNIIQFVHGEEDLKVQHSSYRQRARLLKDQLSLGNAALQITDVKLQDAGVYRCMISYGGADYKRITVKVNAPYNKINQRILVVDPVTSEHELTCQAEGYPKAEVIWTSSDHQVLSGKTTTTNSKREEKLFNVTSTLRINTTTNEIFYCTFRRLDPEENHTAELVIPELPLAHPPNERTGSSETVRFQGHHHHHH

| SMILES | IC50 [nM] |
| --- | --- |
| CCCC[C@H]1C(=O)N2CCC[C@@H]2C(=O)N[C@@H](CC(=O)O)C(=O)N[C@@H](C(C)C)C(=O)N(C)[C@@H](C(C)C)C(=O)N[C@@H](Cc2ccc(O)cc2)C(=O)N2CCCC[C@@H]2C(=O)N[C@@H](Cc2c[nH]c3ccccc23)C(=O)N[C@@H](Cc2ccc(O)cc2)C(=O)N[C@@H](CC(C)CC)C(=O)N[C@H](C(=O)NCC(N)=O)CSCC(=O)N[C@@H](Cc2ccc(F)cc2)C(=O)N(C)[C@@H](Cc2ccccc2)C(=O)N1C (stereo partly drawn) [Example 9242] ({CH2CO}-[Phe(4-F)][NMeF][NMeNle][dP]DV[NMeV]Y[dPip]WY[hIle(4ξ)]CG-NH2; thioether N-13) | 1000 to 10000 |
| CCCC[C@H]1C(=O)N2CCC[C@@H]2C(=O)N[C@@H](CC(=O)O)C(=O)N[C@@H](C(C)C)C(=O)N(C)[C@@H](C(C)C)C(=O)N[C@@H](Cc2ccc(O)cc2)C(=O)N2CCC[C@@H]2C(=O)N[C@@H](Cc2c[nH]c3ccccc23)C(=O)N[C@@H](Cc2ccc(O)cc2)C(=O)N[C@@H](CCCN)C(=O)N[C@H](C(=O)NCC(N)=O)CSCC(=O)N[C@@H](Cc2ccc(F)cc2)C(=O)N(C)[C@@H](Cc2ccccc2)C(=O)N1C [Example 9243] ({CH2CO}-[Phe(4-F)][NMeF][NMeNle][dP]DV[NMeV]Y[dP]WY[Orn]CG-NH2; thioether N-13) | 1000 to 10000 |
| CCCC[C@H]1C(=O)N2CCC[C@@H]2C(=O)N[C@@H](CC(=O)O)C(=O)N[C@@H](C(C)C)C(=O)N(C)[C@@H](C(C)C)C(=O)N[C@@H](Cc2ccc(O)cc2)C(=O)N2CCCC[C@@H]2C(=O)N[C@@H](Cc2c[nH]c3ccccc23)C(=O)N[C@@H](Cc2ccc(O)cc2)C(=O)N[C@@H](CCCN)C(=O)N[C@H](C(=O)NCC(N)=O)CSCC(=O)N[C@@H](Cc2ccc(F)cc2)C(=O)N(C)[C@@H](Cc2ccccc2)C(=O)N1C [Example 9244] ({CH2CO}-[Phe(4-F)][NMeF][NMeNle][dP]DV[NMeV]Y[dPip]WY[Orn]CG-NH2; thioether N-13) | 1000 to 10000 |
| CCCC[C@H]1C(=O)N2CCC[C@@H]2C(=O)N[C@@H](CC(=O)O)C(=O)N[C@@H](C(C)C)C(=O)N(C)[C@@H](C(C)C)C(=O)N[C@@H](CCC(N)=O)C(=O)N2CCC[C@@H]2C(=O)N[C@@H](Cc2c[nH]c3ccccc23)C(=O)N[C@@H](Cc2ccc(O)cc2)C(=O)N[C@@H](CC(C)C)C(=O)N[C@H](C(=O)NCC(N)=O)CSCC(=O)N[C@@H](Cc2ccc(F)cc2)C(=O)N(C)[C@@H](Cc2ccccc2)C(=O)N1C [Example 9245] ({CH2CO}-[Phe(4-F)][NMeF][NMeNle][dP]DV[NMeV]Q[dP]WYLCG-NH2; thioether N-13) | 1000 to 10000 |
| CCCC[C@H]1C(=O)N2CCC[C@@H]2C(=O)N[C@@H](CC(=O)O)C(=O)N[C@@H](C(C)C)C(=O)N(C)[C@@H](C(C)C)C(=O)N[C@@H](CCC(N)=O)C(=O)N2CCCC[C@@H]2C(=O)N[C@@H](Cc2c[nH]c3ccccc23)C(=O)N[C@@H](Cc2ccc(O)cc2)C(=O)N[C@@H](CC(C)C)C(=O)N[C@H](C(=O)NCC(N)=O)CSCC(=O)N[C@@H](Cc2ccc(F)cc2)C(=O)N(C)[C@@H](Cc2ccccc2)C(=O)N1C [Example 9246] ({CH2CO}-[Phe(4-F)][NMeF][NMeNle][dP]DV[NMeV]Q[dPip]WYLCG-NH2; thioether N-13) | 1000 to 10000 |
| CCCC[C@H]1C(=O)N2CCC[C@@H]2C(=O)N[C@@H](CC(=O)O)C(=O)N[C@@H](C(C)C)C(=O)N(C)[C@@H](C(C)C)C(=O)N[C@@H](CCC(N)=O)C(=O)N2CCC[C@@H]2C(=O)N[C@@H](Cc2c[nH]c3ccccc23)C(=O)N[C@@H](Cc2ccc(O)cc2)C(=O)N[C@@H](CCCN)C(=O)N[C@H](C(=O)NCC(N)=O)CSCC(=O)N[C@@H](Cc2ccc(F)cc2)C(=O)N(C)[C@@H](Cc2ccccc2)C(=O)N1C [Example 9247] ({CH2CO}-[Phe(4-F)][NMeF][NMeNle][dP]DV[NMeV]Q[dP]WY[Orn]CG-NH2; thioether N-13) | 1000 to 10000 |
| CCCC[C@H]1C(=O)N2CCC[C@@H]2C(=O)N[C@@H](CC(=O)O)C(=O)N[C@@H](C(C)C)C(=O)N(C)[C@@H](C(C)C)C(=O)N[C@@H](CCC(N)=O)C(=O)N2CCCC[C@@H]2C(=O)N[C@@H](Cc2c[nH]c3ccccc23)C(=O)N[C@@H](Cc2ccc(O)cc2)C(=O)N[C@@H](CCCN)C(=O)N[C@H](C(=O)NCC(N)=O)CSCC(=O)N[C@@H](Cc2ccc(F)cc2)C(=O)N(C)[C@@H](Cc2ccccc2)C(=O)N1C [Example 9248] ({CH2CO}-[Phe(4-F)][NMeF][NMeNle][dP]DV[NMeV]Q[dPip]WY[Orn]CG-NH2; thioether N-13) | 1000 to 10000 |
| CCCC[C@H]1C(=O)N2CCC[C@@H]2C(=O)N[C@@H](CC(=O)O)C(=O)N[C@@H](C(C)C)C(=O)N(C)[C@@H](CC(C)C)C(=O)N[C@@H](Cc2ccc(O)cc2)C(=O)N2CCC[C@@H]2C(=O)N[C@@H](Cc2c[nH]c3ccccc23)C(=O)N[C@@H](Cc2ccc(O)cc2)C(=O)N[C@@H](CC(C)C)C(=O)N[C@H](C(=O)NCC(N)=O)CSCC(=O)N[C@@H](Cc2ccc(F)cc2)C(=O)N(C)[C@@H](Cc2ccccc2)C(=O)N1C [Example 9249] ({CH2CO}-[Phe(4-F)][NMeF][NMeNle][dP]DV[NMeL]Y[dP]WYLCG-NH2; thioether N-13) | 100 to 990 |
| CCCC[C@H]1C(=O)N2CCC[C@@H]2C(=O)N[C@@H](CC(=O)O)C(=O)N[C@@H](C(C)C)C(=O)N(C)[C@@H](CC(C)C)C(=O)N[C@@H](Cc2ccc(O)cc2)C(=O)N2CCCC[C@@H]2C(=O)N[C@@H](Cc2c[nH]c3ccccc23)C(=O)N[C@@H](Cc2ccc(O)cc2)C(=O)N[C@@H](CC(C)C)C(=O)N[C@H](C(=O)NCC(N)=O)CSCC(=O)N[C@@H](Cc2ccc(F)cc2)C(=O)N(C)[C@@H](Cc2ccccc2)C(=O)N1C [Example 9250] ({CH2CO}-[Phe(4-F)][NMeF][NMeNle][dP]DV[NMeL]Y[dPip]WYLCG-NH2; thioether N-13) | 1000 to 10000 |
| CCCC[C@H]1C(=O)N2CCC[C@@H]2C(=O)N[C@@H](CC(=O)O)C(=O)N[C@@H](C(C)C)C(=O)N(C)[C@@H](CC(C)C)C(=O)N[C@@H](Cc2ccc(O)cc2)C(=O)N2CCC[C@@H]2C(=O)N[C@@H](Cc2c[nH]c3ccccc23)C(=O)N[C@@H](Cc2ccc(O)cc2)C(=O)N[C@@H](CCCN)C(=O)N[C@H](C(=O)NCC(N)=O)CSCC(=O)N[C@@H](Cc2ccc(F)cc2)C(=O)N(C)[C@@H](Cc2ccccc2)C(=O)N1C [Example 9251] ({CH2CO}-[Phe(4-F)][NMeF][NMeNle][dP]DV[NMeL]Y[dP]WY[Orn]CG-NH2; thioether N-13) | 100 to 990 |
| CCCC[C@H]1C(=O)N2CCC[C@@H]2C(=O)N[C@@H](CC(=O)O)C(=O)N[C@@H](C(C)C)C(=O)N(C)[C@@H](CC(C)C)C(=O)N[C@@H](CCC(N)=O)C(=O)N2CCC[C@@H]2C(=O)N[C@@H](Cc2c[nH]c3ccccc23)C(=O)N[C@@H](Cc2ccc(O)cc2)C(=O)N[C@@H](CC(C)C)C(=O)N[C@H](C(=O)NCC(N)=O)CSCC(=O)N[C@@H](Cc2ccc(F)cc2)C(=O)N(C)[C@@H](Cc2ccccc2)C(=O)N1C [Example 9253] ({CH2CO}-[Phe(4-F)][NMeF][NMeNle][dP]DV[NMeL]Q[dP]WYLCG-NH2; thioether N-13) | 1000 to 10000 |
| CCCC[C@H]1C(=O)N2CCC[C@@H]2C(=O)N[C@@H](CC(=O)O)C(=O)N[C@@H](C(C)C)C(=O)N(C)[C@@H](CC(C)C)C(=O)N[C@@H](CCC(N)=O)C(=O)N2CCCC[C@@H]2C(=O)N[C@@H](Cc2c[nH]c3ccccc23)C(=O)N[C@@H](Cc2ccc(O)cc2)C(=O)N[C@@H](CC(C)C)C(=O)N[C@H](C(=O)NCC(N)=O)CSCC(=O)N[C@@H](Cc2ccc(F)cc2)C(=O)N(C)[C@@H](Cc2ccccc2)C(=O)N1C [Example 9254] ({CH2CO}-[Phe(4-F)][NMeF][NMeNle][dP]DV[NMeL]Q[dPip]WYLCG-NH2; thioether N-13) | 1000 to 10000 |
